Blank lines part the entries; values can stand above or below the compound they belong to.
Test system: 782815-120-R-J1-PDC complex spheroid viability
Experiment: Anticancer human tumor 782815-120-R-J1-PDC patient-derived colon adenocarcinoma cell line growth inhibition [RAS]
Details: for IC50: curve of first compound; for viability, T/C: stronger effect = lower value
In short: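 Tumour cells grown as complex spheroids with HUVEC endothelial cells and mesenchymal stem cells, treated with RAS pathway inhibitor combinations. Each agent spans half-log steps from near clinical Cmax, or 10 microM where Cmax is unknown.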

[1] = second compound 0.0316 µM, first compound 0.0316 µM
[2] = second compound 0.0316 µM, first compound 0.1 µM
[3] = second compound 0.0316 µM, first compound 0.316 µM
[4] = second compound 0.0316 µM, first compound 1 µM
[5] = second compound 0.1 µM, first compound 0.0316 µM
[6] = second compound 0.1 µM, first compound 0.1 µM
[7] = second compound 0.1 µM, first compound 0.316 µM
[8] = second compound 0.1 µM, first compound 1 µM
[9] = second compound 0.316 µM, first compound 0.0316 µM
[10] = second compound 0.316 µM, first compound 0.1 µM
[11] = second compound 0.316 µM, first compound 0.316 µM
[12] = second compound 0.316 µM, first compound 1 µM
[13] = second compound 1 µM, first compound 0.0316 µM
[14] = second compound 1 µM, first compound 0.1 µM
[15] = second compound 1 µM, first compound 0.316 µM
[16] = second compound 1 µM, first compound 1 µM
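Further: spheroids exposed to compounds for 7 days before reading.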
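Wherever viability, T/C is given: 100% = DMSO vehicle control viability.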

- IC50 (second compound 0.0316 µM): 84.7 nM
- IC50 (second compound 0.1 µM): 57 nM
- IC50 (second compound 0.316 µM): 65.9 nM
- IC50 (second compound 1 µM): 79 nM
- IC50 (second compound 3.16 µM): 54.3 nM
- IC50 (second compound 10 µM): 58.3 nM
SMILES: O=C(c1ccc(F)c(F)c1Nc1ccc(I)cc1F)N1CC(O)([C@@H]2CCCCN2)C1 + C#Cc1c(F)ccc2cc(O)cc(-c3ncc4c(N5CC6CCC(C5)N6)nc(OCC56CCCN5CC(F)C6)nc4c3F)c12
- viability, T/C (second compound 0.0316 µM, first compound 0.00316 µM): 95.6%
- viability, T/C (second compound 0.0316 µM, first compound 0.01 µM): 95%
- viability, T/C [1]: 66%
- viability, T/C [2]: 47.1%
- viability, T/C [3]: 23.6%
- viability, T/C [4]: 3.7%
- viability, T/C (second compound 0.1 µM, first compound 0.00316 µM): 97.4%
- viability, T/C (second compound 0.1 µM, first compound 0.01 µM): 81%
- viability, T/C [5]: 61.5%
- viability, T/C [6]: 38.6%
- viability, T/C [7]: 20.8%
- viability, T/C [8]: 4.18%
- viability, T/C (second compound 0.316 µM, first compound 0.00316 µM): 98.7%
- viability, T/C (second compound 0.316 µM, first compound 0.01 µM): 88.4%
- viability, T/C [9]: 63.1%
- viability, T/C [10]: 42.2%
- viability, T/C [11]: 19.1%
- viability, T/C [12]: 2.93%
- viability, T/C (second compound 1 µM, first compound 0.00316 µM): 97.8%
- viability, T/C (second compound 1 µM, first compound 0.01 µM): 85.4%
- viability, T/C [13]: 69.7%
- viability, T/C [14]: 46.5%
- viability, T/C [15]: 18.1%
- viability, T/C [16]: 1.87%
- viability, T/C (second compound 3.16 µM, first compound 0.00316 µM): 99.4%
- viability, T/C (second compound 3.16 µM, first compound 0.01 µM): 85.9%
- viability, T/C (second compound 3.16 µM, first compound 0.0316 µM): 59.1%
- viability, T/C (second compound 3.16 µM, first compound 0.1 µM): 40.7%
- viability, T/C (second compound 3.16 µM, first compound 0.316 µM): 10.4%
- viability, T/C (second compound 3.16 µM, first compound 1 µM): 0.92%
- viability, T/C (second compound 10 µM, first compound 0.00316 µM): 98.4%
- viability, T/C (second compound 10 µM, first compound 0.01 µM): 88.3%
- viability, T/C (second compound 10 µM, first compound 0.0316 µM): 61.4%
- viability, T/C (second compound 10 µM, first compound 0.1 µM): 41.2%
- viability, T/C (second compound 10 µM, first compound 0.316 µM): 10.1%
- viability, T/C (second compound 10 µM, first compound 1 µM): 0.5%

- IC50 (second compound 0.00316 µM): > 300 nM
- IC50 (second compound 0.01 µM): > 300 nM
- IC50 (second compound 0.0316 µM): > 300 nM
- IC50 (second compound 0.1 µM): > 300 nM
- IC50 (second compound 0.316 µM): > 300 nM
- IC50 (second compound 1 µM): 270 nM
SMILES: CC1(C)CCC(Nc2ncc(C(F)(F)F)c(-c3c[nH]c4c(P(C)(C)=O)c(C#N)ccc34)n2)CN1 (stereo unspecified) + C=CC(=O)N1CCN(c2nc(OCC3CCCN3C)nc3c(F)c(-c4nc(N)cc(C)c4C(F)(F)F)c(Cl)cc23)C(C)C1
- viability, T/C (second compound 0.00316 µM, first compound 0.000949 µM): 106%
- viability, T/C (second compound 0.00316 µM, first compound 0.003 µM): 113%
- viability, T/C (second compound 0.00316 µM, first compound 0.00949 µM): 88.4%
- viability, T/C (second compound 0.00316 µM, first compound 0.03 µM): 63.7%
- viability, T/C (second compound 0.00316 µM, first compound 0.0949 µM): 68.8%
- viability, T/C (second compound 0.00316 µM, first compound 0.3 µM): 58.3%
- viability, T/C (second compound 0.01 µM, first compound 0.000949 µM): 97.7%
- viability, T/C (second compound 0.01 µM, first compound 0.003 µM): 101%
- viability, T/C (second compound 0.01 µM, first compound 0.00949 µM): 88.7%
- viability, T/C (second compound 0.01 µM, first compound 0.03 µM): 72.9%
- viability, T/C (second compound 0.01 µM, first compound 0.0949 µM): 49.5%
- viability, T/C (second compound 0.01 µM, first compound 0.3 µM): 59.6%
- viability, T/C (second compound 0.0316 µM, first compound 0.000949 µM): 107%
- viability, T/C (second compound 0.0316 µM, first compound 0.003 µM): 103%
- viability, T/C (second compound 0.0316 µM, first compound 0.00949 µM): 90.8%
- viability, T/C (second compound 0.0316 µM, first compound 0.03 µM): 77.2%
- viability, T/C (second compound 0.0316 µM, first compound 0.0949 µM): 57.8%
- viability, T/C (second compound 0.0316 µM, first compound 0.3 µM): 52.3%
- viability, T/C (second compound 0.1 µM, first compound 0.000949 µM): 107%
- viability, T/C (second compound 0.1 µM, first compound 0.003 µM): 104%
- viability, T/C (second compound 0.1 µM, first compound 0.00949 µM): 88.7%
- viability, T/C (second compound 0.1 µM, first compound 0.03 µM): 68.2%
- viability, T/C (second compound 0.1 µM, first compound 0.0949 µM): 55.5%
- viability, T/C (second compound 0.1 µM, first compound 0.3 µM): 56.8%
- viability, T/C (second compound 0.316 µM, first compound 0.000949 µM): 103%
- viability, T/C (second compound 0.316 µM, first compound 0.003 µM): 97.2%
- viability, T/C (second compound 0.316 µM, first compound 0.00949 µM): 90.9%
- viability, T/C (second compound 0.316 µM, first compound 0.03 µM): 67.2%
- viability, T/C (second compound 0.316 µM, first compound 0.0949 µM): 77.3%
- viability, T/C (second compound 0.316 µM, first compound 0.3 µM): 55.3%
- viability, T/C (second compound 1 µM, first compound 0.000949 µM): 120%
- viability, T/C (second compound 1 µM, first compound 0.003 µM): 97.1%
- viability, T/C (second compound 1 µM, first compound 0.00949 µM): 85.8%
- viability, T/C (second compound 1 µM, first compound 0.03 µM): 63.3%
- viability, T/C (second compound 1 µM, first compound 0.0949 µM): 65.2%
- viability, T/C (second compound 1 µM, first compound 0.3 µM): 53.3%

- IC50 (second compound 0.00316 µM): > 10000 nM
- IC50 (second compound 0.01 µM): > 10000 nM
- IC50 (second compound 0.0316 µM): > 10000 nM
- IC50 (second compound 0.1 µM): > 10000 nM
- IC50 (second compound 0.316 µM): > 10000 nM
- IC50 (second compound 1 µM): > 10000 nM
SMILES: CC(Nc1ccc2c(c1)OCCn1cc(N3C(=O)OCC3C(F)F)nc1-2)C(N)=O (stereo unspecified) + C=CC(=O)N1CCN(c2nc(OCC3CCCN3C)nc3c(F)c(-c4nc(N)cc(C)c4C(F)(F)F)c(Cl)cc23)C(C)C1
- viability, T/C (second compound 0.00316 µM, first compound 0.0316 µM): 92.9%
- viability, T/C (second compound 0.00316 µM, first compound 0.1 µM): 87.6%
- viability, T/C (second compound 0.00316 µM, first compound 0.316 µM): 88.4%
- viability, T/C (second compound 0.00316 µM, first compound 1 µM): 79.1%
- viability, T/C (second compound 0.00316 µM, first compound 3.16 µM): 99.6%
- viability, T/C (second compound 0.00316 µM, first compound 10 µM): 103%
- viability, T/C (second compound 0.01 µM, first compound 0.0316 µM): 93.5%
- viability, T/C (second compound 0.01 µM, first compound 0.1 µM): 98.6%
- viability, T/C (second compound 0.01 µM, first compound 0.316 µM): 95.8%
- viability, T/C (second compound 0.01 µM, first compound 1 µM): 83.6%
- viability, T/C (second compound 0.01 µM, first compound 3.16 µM): 103%
- viability, T/C (second compound 0.01 µM, first compound 10 µM): 98.8%
- viability, T/C [1]: 93.2%
- viability, T/C [2]: 93.6%
- viability, T/C [3]: 82.3%
- viability, T/C [4]: 80.6%
- viability, T/C (second compound 0.0316 µM, first compound 3.16 µM): 87.8%
- viability, T/C (second compound 0.0316 µM, first compound 10 µM): 93.3%
- viability, T/C [5]: 88.3%
- viability, T/C [6]: 91.1%
- viability, T/C [7]: 94.1%
- viability, T/C [8]: 86.1%
- viability, T/C (second compound 0.1 µM, first compound 3.16 µM): 102%
- viability, T/C (second compound 0.1 µM, first compound 10 µM): 93.2%
- viability, T/C [9]: 93.6%
- viability, T/C [10]: 86.4%
- viability, T/C [11]: 86.4%
- viability, T/C [12]: 89.2%
- viability, T/C (second compound 0.316 µM, first compound 3.16 µM): 85.1%
- viability, T/C (second compound 0.316 µM, first compound 10 µM): 101%
- viability, T/C [13]: 95.2%
- viability, T/C [14]: 79.5%
- viability, T/C [15]: 87.2%
- viability, T/C [16]: 85.2%
- viability, T/C (second compound 1 µM, first compound 3.16 µM): 97.8%
- viability, T/C (second compound 1 µM, first compound 10 µM): 92.8%

From PubChem BioAssay AID2060887 (Molecular Pharmacology Branch, DTP, NCI, 2025)
